According to ChEMBL document CHEMBL5150045, “Structure-Guided Design of Halofuginone Derivatives as ATP-Aided Inhibitors Against Bacterial Prolyl-tRNA Synthetase” (J Med Chem, 2022):
pIC50, pKd: −log10 of the molar value. ≈ marks a conversion by molar mass, not a printed value. Where “and” joins values, the source holds several entries; their conditions need not be identical. Identical values can stand only once. Calls of active or inactive are those of the source. No cut-off for these calls is given here.

Experiments:
Staphylococcus aureus [1] = experiment: Resistance development in methicillin-resistant Staphylococcus aureus 252 assessed as fold increase in resistance after 15 days serial passage upto 256 ug/ml; assay type: functional; conditions: dose <= 256 µg/ml; time 15 day
[2] = Binding affinity to methicillin-resistant Staphylococcus aureus ProRS expressed in Escherichia coli assessed as dissociation constant in presence of 0.2 nM ATP by microscale thermophoresis assay
Homo sapiens [3] = organism: Homo sapiens; experiment: Inhibition of human ProRS expressed in Escherichia coli assessed as generation of inorganic monophosphate by pre-transfer editing-based experiment; conditions: dose 0-100 µM, DDE = dose-dependent effect
[4] = Binding affinity to methicillin-resistant Staphylococcus aureus ProRS expressed in Escherichia coli assessed as dissociation constant in presence of 0.1 nM ATP by microscale thermophoresis assay
Salmonella typhi = experiment: Antibacterial activity against Salmonella typhi CMCC50094 assessed as prevention of visible growth by broth microdilution method; assay type: functional, Salmonella enterica subsp. enterica serovar Typhi; conditions: Salmonella enterica
[5] = target: T1, Proline--tRNA ligase (Salmonella typhi) (UniProt Q8XEY9); experiment: Inhibition of Salmonella typhi ProRS expressed in Escherichia coli assessed as change in melting temperature in presence of AMPPNP at 0.5 mM by fluorescence-based thermal shift assay; conditions: Salmonella enterica subsp. enterica serovar Typhi
T1 sequence (whole entry): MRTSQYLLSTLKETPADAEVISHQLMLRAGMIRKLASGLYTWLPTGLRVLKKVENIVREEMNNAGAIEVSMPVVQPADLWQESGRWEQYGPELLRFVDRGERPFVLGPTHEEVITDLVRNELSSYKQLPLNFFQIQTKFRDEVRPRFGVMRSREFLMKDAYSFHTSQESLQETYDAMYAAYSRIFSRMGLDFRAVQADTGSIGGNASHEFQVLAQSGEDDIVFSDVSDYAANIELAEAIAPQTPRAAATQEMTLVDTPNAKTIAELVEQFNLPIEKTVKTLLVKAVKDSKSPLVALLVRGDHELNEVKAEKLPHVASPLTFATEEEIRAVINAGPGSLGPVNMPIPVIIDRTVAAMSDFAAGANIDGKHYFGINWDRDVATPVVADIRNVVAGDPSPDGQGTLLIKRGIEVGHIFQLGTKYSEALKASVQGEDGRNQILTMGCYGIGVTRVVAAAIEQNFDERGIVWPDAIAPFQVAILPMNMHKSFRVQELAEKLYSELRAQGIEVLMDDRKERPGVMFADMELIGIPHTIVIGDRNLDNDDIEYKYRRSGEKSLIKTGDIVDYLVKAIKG

Shigella flexneri = experiment: Antibacterial activity against Shigella flexneri CMCC51572 assessed as prevention of visible growth by broth microdilution method; assay type: functional
[6] = Binding affinity to methicillin-resistant Staphylococcus aureus ProRS expressed in Escherichia coli assessed as dissociation constant in presence of 2 nM ATP by microscale thermophoresis assay
[7] = Binding affinity to methicillin-resistant Staphylococcus aureus ProRS expressed in Escherichia coli assessed as dissociation constant in presence of 0.05 nM ATP by microscale thermophoresis assay
Staphylococcus aureus [8] = experiment: Antibacterial activity against methicillin-resistant Staphylococcus aureus 252 assessed as prevention of visible growth by broth microdilution method; assay type: functional
Saccharomyces cerevisiae = experiment: Inhibition of Saccharomyces cerevisiae ProRS expressed in Escherichia coli assessed as generation of inorganic monophosphate at 0 to 100 uM by pre-transfer editing-based experiment; conditions: dose 0-100 µM, DDE = dose-dependent effect
Escherichia coli [9] = experiment: Antibacterial activity against Escherichia coli ATCC25922 assessed as prevention of visible growth by broth microdilution method; assay type: functional
Staphylococcus aureus [10] = experiment: Antibacterial activity against Staphylococcus aureus ATCC25923 assessed as prevention of visible growth by broth microdilution method; assay type: functional
[11] = (§1) Inhibition of methicillin-resistant Staphylococcus aureus ProRS expressed in Escherichia coli assessed as generation of inorganic monophosphate by pre-transfer editing-based experiment
Staphylococcus aureus [12] = experiment: as §1; conditions: dose 0-100 µM, DDE = dose-dependent effect
Homo sapiens [13] = organism: Homo sapiens; experiment: Inhibition of human ProRS expressed in Escherichia coli assessed as change in melting temperature in presence of AMPPNP at 0.5 mM by fluorescence-based thermal shift assay
[14] = Cytotoxicity against human HepG2 cells; assay type: toxicity, cell-based
Staphylococcus aureus [15] = experiment: Antibacterial activity against Staphylococcus aureus ATCC29213 assessed as prevention of visible growth by broth microdilution method; assay type: functional
[16] = target: T2, Proline--tRNA ligase (Escherichia coli) (UniProt P16659); experiment: Inhibition of Escherichia coli ProRS expressed in Escherichia coli assessed as generation of inorganic monophosphate by pre-transfer editing-based experiment; conditions: dose 0-100 µM, DDE = dose-dependent effect
T2 sequence (whole entry): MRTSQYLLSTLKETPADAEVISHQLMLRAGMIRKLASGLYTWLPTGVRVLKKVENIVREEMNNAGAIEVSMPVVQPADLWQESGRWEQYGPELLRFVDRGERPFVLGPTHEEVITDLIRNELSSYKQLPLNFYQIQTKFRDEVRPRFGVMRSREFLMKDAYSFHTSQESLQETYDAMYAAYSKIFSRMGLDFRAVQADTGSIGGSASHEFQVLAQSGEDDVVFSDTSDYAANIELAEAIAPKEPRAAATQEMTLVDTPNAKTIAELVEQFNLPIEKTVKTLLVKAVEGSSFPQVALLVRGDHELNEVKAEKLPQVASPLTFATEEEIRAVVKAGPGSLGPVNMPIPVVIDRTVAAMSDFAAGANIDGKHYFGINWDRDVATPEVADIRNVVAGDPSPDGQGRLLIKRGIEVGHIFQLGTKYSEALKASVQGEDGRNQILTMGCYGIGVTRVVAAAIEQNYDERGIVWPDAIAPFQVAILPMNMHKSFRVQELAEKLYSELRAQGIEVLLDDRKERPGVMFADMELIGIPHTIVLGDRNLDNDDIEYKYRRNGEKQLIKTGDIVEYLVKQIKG

[17] = Binding affinity to methicillin-resistant Staphylococcus aureus ProRS expressed in Escherichia coli assessed as dissociation constant by microscale thermophoresis assay
Staphylococcus aureus [18] = experiment: Inhibition of methicillin-resistant Staphylococcus aureus ProRS expressed in Escherichia coli assessed as change in melting temperature in presence of AMPPNP at 0.5 mM by fluorescence-based thermal shift assay
[19] = target: T2, Proline--tRNA ligase (Escherichia coli); experiment: Inhibition of Escherichia coil ProRS expressed in Escherichia coli assessed as change in melting temperature in presence of AMPPNP at 0.5 mM by fluorescence-based thermal shift assay
Staphylococcus aureus [20] = experiment: Antibacterial activity against methicillin-resistant Staphylococcus aureus R3708 assessed as prevention of visible growth by broth microdilution method; assay type: functional
[21] = Binding affinity to methicillin-resistant Staphylococcus aureus ProRS expressed in Escherichia coli assessed as dissociation constant in presence of 1 nM ATP by microscale thermophoresis assay
[22] = Binding affinity to methicillin-resistant Staphylococcus aureus ProRS expressed in Escherichia coli assessed as dissociation constant in presence of 0.5 nM ATP by microscale thermophoresis assay
[23] = target: T1, Proline--tRNA ligase (Salmonella typhi); experiment: Inhibition of Salmonella typhi ProRS expressed in Escherichia coli assessed as generation of inorganic monophosphate by pre-transfer editing-based experiment; conditions: Salmonella enterica subsp. enterica serovar Typhi; dose 0-100 µM; DDE = dose-dependent effect
Staphylococcus aureus [24] = experiment: Bacteriostatic effect against methicillin-resistant Staphylococcus aureus 252 assessed as decrease in CFU/ml at MIC measured for 24 hrs by CLSI based time-kill kinetic assays; assay type: functional
Escherichia coli [25] = experiment: Resistance development in Escherichia coli ATCC25922 assessed as fold increase in resistance after 15 days serial passage upto 256 ug/ml; assay type: functional; conditions: dose <= 256 µg/ml; time 15 day
Staphylococcus aureus [26] = experiment: Bacteriostatic effect against methicillin-resistant Staphylococcus aureus 252 assessed as decrease in CFU/ml at 4 times of MIC measured for 24 hrs by CLSI based time-kill kinetic assays; assay type: functional
Escherichia coli [27] = experiment: Ratio of MBC99.9 for Escherichia coli ATCC25922 to MIC for Escherichia coli ATCC25922; assay type: functional
Escherichia coli [28] = experiment: Bacteriostatic effect against Escherichia coli ATCC25922 assessed as decrease in CFU/ml at 1 to 4 times of MIC measured for 0 to 12 hrs by CLSI based time-kill kinetic assays; assay type: functional, organism-based; conditions: time 0-12 hrs
Staphylococcus aureus [29] = experiment: Bactericidal activity against methicillin-resistant Staphylococcus aureus 252 assessed as bacterial killing measured after 24 hrs incubation by CLSI method; assay type: functional; conditions: read-out: MBC99.9
Staphylococcus aureus [30] = experiment: Antibacterial activity against drug-resistance induced methicillin-resistant Staphylococcus aureus 252 assessed as assessed as reversal of drug resistance measured after 10 days in compound free media by broth microdilution method; assay type: functional; conditions: Staphylococcus aureus, 252, 240 h; time 10 day
[31] = Selectivity index, ratio of CC50 for human HepG2 cells to MIC for methicillin-resistant Staphylococcus aureus 252; assay type: toxicity; conditions: read-out: Selectivity Index
Staphylococcus aureus [32] = experiment: Ratio of MBC99.9 for methicillin-resistant Staphylococcus aureus 252 to MIC for methicillin-resistant Staphylococcus aureus 252; assay type: functional
Escherichia coli [33] = experiment: Bacteriostatic effect against Escherichia coli ATCC25922 assessed as decrease in CFU/ml at 4 times of MIC measured for 24 hrs by CLSI based time-kill kinetic assays; assay type: functional
Escherichia coli [34] = experiment: Antibacterial activity against drug-resistance induced Escherichia coli ATCC25922 assessed as assessed as reversal of drug resistance measured after 10 days in compound free media by broth microdilution method; assay type: functional; conditions: ATCC25922, 240 h, time 10 day
Staphylococcus aureus [35] = experiment: Bacteriostatic effect against methicillin-resistant Staphylococcus aureus 252 assessed as decrease in CFU/ml at 1 to 4 times of MIC measured for 0 to 12 hrs by CLSI based time-kill kinetic assays; assay type: functional, organism-based; conditions: time 0-12 hrs

C[C@H]1COc2c(N3CCN(C)CC3)c(F)cc3c(=O)c(C(=O)O)cn1c23.C[C@H]1COc2c(N3CCN(C)CC3)c(F)cc3c(=O)c(C(=O)O)cn1c23.O [LEVOFLOXACIN]
fold change (FC) (Staphylococcus aureus [1]): 64

O=C(CC1NCCCC1O)Cn1cnc2cc(Br)c(Cl)cc2c1=O (stereo unspecified) [HALOFUGINONE]
pKd [2]: 4.94
inhibition (Homo sapiens [3]): Dde
pKd [4]: 3.20
MIC (Salmonella typhi): > 64 µg/mL
ΔTm [5]: 12.5 °C
MIC (Shigella flexneri): 64 µg/mL (≈ 154 µM)
pKd [6]: 6.67
pKd [7]: 3.11
MIC (Staphylococcus aureus [8]): 64 µg/mL (≈ 154 µM)
inhibition (Saccharomyces cerevisiae): Dde
MIC (Escherichia coli [9]): 64 µg/mL (≈ 154 µM)
MIC (Staphylococcus aureus [10]): > 64 µg/mL
pIC50 [11]: 6.18
inhibition (Staphylococcus aureus [12]): Dde
ΔTm (Homo sapiens [13]): 13.6 °C and 17.4 °C
CC50 [14]: 4.32 µM
MIC (Staphylococcus aureus [15]): > 64 µg/mL
inhibition [16]: Dde
pKd [17]: 2.99
ΔTm (Staphylococcus aureus [18]): 6.9 °C and 6 °C
ΔTm [19]: 17.4 °C
MIC (Staphylococcus aureus [20]): 64 µg/mL (≈ 154 µM)
pKd [21]: 6.37
pKd [22]: 5.26
inhibition [23]: Dde

C/C(=C\C(=O)OCCCCCCCCC(=O)O)C[C@@H]1OC[C@H](C[C@@H]2O[C@H]2[C@@H](C)[C@H](C)O)[C@@H](O)[C@H]1O [MUPIROCIN]
MIC (Salmonella typhi): 32 µg/mL (≈ 63.9 µM)
MIC (Shigella flexneri): 8 µg/mL (≈ 16 µM)
MIC (Staphylococcus aureus [8]): 0.13 µg/mL (≈ 0.26 µM)
Activity (Staphylococcus aureus [24]): 1.2 log10CFU/ml
MIC (Escherichia coli [9]): 32 µg/mL (≈ 63.9 µM)
MIC (Staphylococcus aureus [10]): 0.13 µg/mL (≈ 0.26 µM)
MIC (Staphylococcus aureus [15]): 0.13 µg/mL (≈ 0.26 µM)
MIC (Staphylococcus aureus [20]): 0.13 µg/mL (≈ 0.26 µM)

O=C(C[C@@H]1CCCCN1)Cn1cnc2cc(Cl)c(F)cc2c1=O
pKd [2]: 5.08
fold change (FC) (Escherichia coli [25]): 16
pKd [4]: 3.69
MIC (Salmonella typhi): 4 µg/mL (≈ 11.8 µM)
Activity (Staphylococcus aureus [26]): 2.1 log10CFU/ml
MIC (Shigella flexneri): 1 µg/mL (≈ 2.96 µM)
pKd [6]: 7.52
pKd [7]: 3.56
MIC (Staphylococcus aureus [8]): 1 µg/mL (≈ 2.96 µM)
Ratio (Escherichia coli [27]): 16
Activity (Escherichia coli [28]): Active
MBC (Staphylococcus aureus [29]): 8 µg/mL (≈ 23.7 µM)
MIC (Escherichia coli [9]): 1 µg/mL (≈ 2.96 µM)
MIC (Staphylococcus aureus [10]): 4 µg/mL (≈ 11.8 µM)
MIC (Staphylococcus aureus [30]): 4 µg/mL
pIC50 [11]: 6.74
ΔTm (Homo sapiens [13]): 20.4 °C
selectivity ratio [31]: 3600
CC50 [14]: 0.076 µM
MIC (Staphylococcus aureus [15]): 2 µg/mL (≈ 5.92 µM)
Ratio (Staphylococcus aureus [32]): 8
Activity (Escherichia coli [33]): 1.6 log10CFU/ml
fold change (FC) (Staphylococcus aureus [1]): 15
pKd [17]: 3.42
ΔTm (Staphylococcus aureus [18]): 10.2 °C
MIC (Escherichia coli [34]): 8 µg/mL
Activity (Staphylococcus aureus [35]): Active
MIC (Staphylococcus aureus [20]): 1 µg/mL (≈ 2.96 µM)
pKd [21]: 7.17
pKd [22]: 6.16

O=C(O)c1cn(C2CC2)c2cc(N3CCNCC3)c(F)cc2c1=O [CIPROFLOXACIN]
fold change (FC) (Escherichia coli [25]): 16
MIC (Shigella flexneri): 2 µg/mL (≈ 6.04 µM)
